ChEMBL document CHEMBL5154806, “Synthesis and Profiling of Highly Selective Inhibitors of Methyltransferase DOT1L Based on Carbocyclic C-Nucleosides” (J Med Chem, 2022)
Activity calls are given as the source filed them. No cut-off for these calls is given here.

How the values were obtained:
[1] = target: T1, Histone-lysine N-methyltransferase, H3 lysine-79 specific (Homo sapiens, UniProt Q8TEK3); assay: Inhibition of DOT1L in human SU-DHL-4 cells assessed as decrease in H3K79 methylation at 1 to 10 uM using histone H3 as substrate incubated for 5 days by immunoblotting assay; type: cell-based; conditions: dose 1-10 µM, time 5.0 day, DDE = dose-dependent effect
Target sequence in this assay (Q8TEK3 whole entry, looked up): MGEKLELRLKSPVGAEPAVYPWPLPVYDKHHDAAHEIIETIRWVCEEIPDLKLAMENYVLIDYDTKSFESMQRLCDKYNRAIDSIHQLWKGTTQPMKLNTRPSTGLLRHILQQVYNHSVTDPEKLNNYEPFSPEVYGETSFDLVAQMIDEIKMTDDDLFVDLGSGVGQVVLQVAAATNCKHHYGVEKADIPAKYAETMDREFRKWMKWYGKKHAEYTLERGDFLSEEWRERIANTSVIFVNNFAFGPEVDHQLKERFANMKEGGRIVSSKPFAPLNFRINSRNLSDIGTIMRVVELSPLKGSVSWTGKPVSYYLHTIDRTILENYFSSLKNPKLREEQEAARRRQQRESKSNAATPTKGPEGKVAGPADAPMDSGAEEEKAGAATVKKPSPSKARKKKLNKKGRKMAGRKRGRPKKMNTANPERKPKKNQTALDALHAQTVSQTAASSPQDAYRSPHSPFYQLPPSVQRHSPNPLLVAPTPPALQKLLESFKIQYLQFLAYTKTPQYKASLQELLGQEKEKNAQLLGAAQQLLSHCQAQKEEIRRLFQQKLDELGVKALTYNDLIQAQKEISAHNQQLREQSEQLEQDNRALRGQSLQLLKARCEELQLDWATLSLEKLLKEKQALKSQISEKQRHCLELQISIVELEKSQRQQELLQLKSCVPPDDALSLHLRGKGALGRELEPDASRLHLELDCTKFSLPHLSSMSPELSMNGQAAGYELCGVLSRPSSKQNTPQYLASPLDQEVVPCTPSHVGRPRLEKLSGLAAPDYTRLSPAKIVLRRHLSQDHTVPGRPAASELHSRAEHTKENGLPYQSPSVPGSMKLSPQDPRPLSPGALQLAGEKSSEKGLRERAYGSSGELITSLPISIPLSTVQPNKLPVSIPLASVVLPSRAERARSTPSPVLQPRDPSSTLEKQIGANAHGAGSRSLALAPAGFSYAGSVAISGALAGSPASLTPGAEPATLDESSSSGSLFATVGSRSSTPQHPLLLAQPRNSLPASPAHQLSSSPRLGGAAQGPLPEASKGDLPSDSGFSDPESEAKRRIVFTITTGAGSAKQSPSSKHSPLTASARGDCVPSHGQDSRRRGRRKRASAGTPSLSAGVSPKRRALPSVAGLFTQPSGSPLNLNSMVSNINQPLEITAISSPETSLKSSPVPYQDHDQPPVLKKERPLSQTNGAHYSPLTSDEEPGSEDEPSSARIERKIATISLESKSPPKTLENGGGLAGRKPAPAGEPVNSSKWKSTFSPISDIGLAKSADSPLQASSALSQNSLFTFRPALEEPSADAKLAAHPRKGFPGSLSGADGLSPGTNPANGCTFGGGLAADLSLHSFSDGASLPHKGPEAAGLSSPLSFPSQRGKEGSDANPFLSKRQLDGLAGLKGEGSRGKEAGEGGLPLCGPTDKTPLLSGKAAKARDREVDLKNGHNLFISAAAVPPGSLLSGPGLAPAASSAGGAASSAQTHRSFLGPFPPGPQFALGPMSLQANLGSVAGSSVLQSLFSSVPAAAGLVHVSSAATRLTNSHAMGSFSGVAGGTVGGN

[2] = Cmax in fasted BALB/c mouse at 20 mg/kg, iv administered upto 600 mins by HPLC-MS/MS analysis; type: ADME, organism-based; design: time < 600 min, dose 20 mg/kg, route iv; conditions: in vivo
[3] = AUC (0 to t) in fasted BALB/c mouse at 20 mg/kg, iv administered upto 600 mins by HPLC-MS/MS analysis; type: ADME, organism-based; design: dose 20 mg/kg, time < 600 min, route iv; conditions: in vivo
[4] = target: T1, Histone-lysine N-methyltransferase, H3 lysine-79 specific; assay: Inhibition of DOT1L in human OCI-AML5 cells assessed as decrease in H3K79 methylation at 1 to 10 uM using histone H3 as substrate incubated for 3 days by immunoblotting assay; type: cell-based; conditions: dose 1-10 µM, time 3.0 day, DDE = dose-dependent effect
Target sequence in this assay (Q8TEK3 whole entry, looked up): as above

[5] = AUC (0 to infinity) in fasted BALB/c mouse at 5 mg/kg, iv administered upto 600 mins by HPLC-MS/MS analysis; type: ADME, organism-based; design: dose 5 mg/kg, time < 600 min, route iv; conditions: in vivo
[6] = target: T1, Histone-lysine N-methyltransferase, H3 lysine-79 specific; assay: Inhibition of DOT1L in human MOLM-13 cells assessed as decrease in H3K79 methylation at 1 to 10 uM using histone H3 as substrate incubated for 3 days by immunoblotting assay; type: cell-based; conditions: dose 1-10 µM, time 3.0 day, DDE = dose-dependent effect
Target sequence in this assay (Q8TEK3 whole entry, looked up): as above

[7] = Tmax in fasted BALB/c mouse at 20 mg/kg, iv administered upto 600 mins by HPLC-MS/MS analysis; type: ADME, organism-based; conditions: in vivo
[8] = AUC (0 to t) in fasted BALB/c mouse at 5 mg/kg, iv administered upto 600 mins by HPLC-MS/MS analysis; type: ADME, organism-based; design: time < 600 min, dose 5 mg/kg, route iv; conditions: in vivo
MV4-11 = assay: Cytotoxicity against human MV4-11 cells assessed as reduction of cell viability up to 10 uM incubated for 72 hrs by celltiter-glo assay; type: functional, cell-based; conditions: MV4-11, 72 h
[9] = target: T1, Histone-lysine N-methyltransferase, H3 lysine-79 specific; assay: Inhibition of DOT1L in human OCI-AML5 cells assessed as decrease in H3K79 methylation at 1 to 10 uM using histone H3 as substrate incubated for 5 days by immunoblotting assay; type: cell-based; conditions: dose 1-10 µM, time 5.0 day, DDE = dose-dependent effect
Target sequence in this assay (Q8TEK3 whole entry, looked up): as above

SK-N-MC = assay: Cytotoxicity against human SK-N-MC cells assessed as reduction of cell viability up to 10 uM incubated for 72 hrs by celltiter-glo assay; type: functional, cell-based
OCI-AML-3 = assay: Cytotoxicity against human OCI-AML-3 cells assessed as reduction of cell viability at 20 to 40 uM incubated for 5 to 15 days by DiOC6/ propidium staining based flow cytometry analysis; type: functional; conditions: dose 20-40 µM, time 5-15 day
MOLM-13 [10] = assay: Downregulation of HOXA9 gene in human MOLM-13 cells at 10 uM measured after 3 to 10 days by qPCR analysis; type: functional, cell-based; conditions: time 3-10 day
[11] = target: T1, Histone-lysine N-methyltransferase, H3 lysine-79 specific; assay: Inhibition of DOT1L in human MOLM-13 cells assessed as decrease in H3K79 methylation at 1 to 10 uM using histone H3 as substrate incubated for 5 days by immunoblotting assay; type: cell-based; conditions: dose 1-10 µM, time 5.0 day, DDE = dose-dependent effect
Target sequence in this assay (Q8TEK3 whole entry, looked up): as above

[12] = target: T1, Histone-lysine N-methyltransferase, H3 lysine-79 specific; assay: Inhibition of human DOT1L by hotspot PMT activity assay
Target sequence in this assay (Q8TEK3 whole entry): as the sequence (Q8TEK3 whole entry, looked up) above

[13] = Cmax in fasted BALB/c mouse at 5 mg/kg, iv administered upto 600 mins by HPLC-MS/MS analysis; type: ADME, organism-based; design: time < 600 min, dose 5 mg/kg, route iv; conditions: in vivo
[14] = Tmax in fasted BALB/c mouse at 5 mg/kg, iv administered upto 600 mins by HPLC-MS/MS analysis; type: ADME, organism-based; conditions: in vivo
[15] = AUC (0 to infinity) in fasted BALB/c mouse at 20 mg/kg, iv administered upto 600 mins by HPLC-MS/MS analysis; type: ADME, organism-based; design: dose 20 mg/kg, time < 600 min, route iv; conditions: in vivo
MOLM-13 [16] = assay: Cytotoxicity against human MOLM-13 cells assessed as metabolic activity at 1 to 40 uM incubated for 10 to 15 days by WST-1 assay; type: functional, cell-based; conditions: dose 1-40 µM, time 10-15 day
[17] = target: T1, Histone-lysine N-methyltransferase, H3 lysine-79 specific; assay: Inhibition of DOT1L in human SU-DHL-4 cells assessed as decrease in H3K79 methylation at 1 to 10 uM using histone H3 as substrate incubated for 3 days by immunoblotting assay; type: cell-based; conditions: dose 1-10 µM, time 3.0 day, DDE = dose-dependent effect
Target sequence in this assay (Q8TEK3 whole entry, looked up): as above

[18] = Half life in fasted BALB/c mouse at 5 mg/kg, iv administered upto 600 mins by HPLC-MS/MS analysis; type: ADME, organism-based; conditions: BALB/c, in vivo
[19] = Metabolic stability in BALB/c mouse liver microsomes assessed as parent compound remaining measured after 40 mins; type: ADME, Microsome; conditions: read-out: Stability
MOLM-13 [20] = assay: Cytotoxicity against human MOLM-13 cells assessed as reduction of cell viability at 20 to 40 uM incubated for 5 to 15 days by DiOC6/ propidium staining based flow cytometry analysis; type: functional; conditions: dose 20-40 µM, time 5-15 day
[21] = Clearance in fasted BALB/c mouse at 20 mg/kg, iv administered upto 600 mins by HPLC-MS/MS analysis; type: ADME, organism-based; conditions: in vivo
[22] = Microsomal stability in BALB/c mouse liver microsomes assessed as intrinsic clearance; type: ADME, Microsome; conditions: read-out: CLH
[23] = Clearance in fasted BALB/c mouse at 5 mg/kg, iv administered upto 600 mins by HPLC-MS/MS analysis; type: ADME, organism-based; conditions: in vivo
SU-DHL-5 = assay: Cytotoxicity against human SU-DHL-5 cells assessed as reduction of cell viability up to 10 uM incubated for 72 hrs by celltiter-glo assay; type: functional, cell-based; conditions: SU-DHL-5, 72 h
[24] = Elimination rate constant in fasted BALB/c mouse at 20 mg/kg, iv administered upto 600 mins by HPLC-MS/MS analysis; type: ADME, organism-based; conditions: in vivo
SUD4 = assay: Cytotoxicity against human SU-DHL-4 cells assessed as reduction of cell viability at 20 to 40 uM incubated for 5 to 15 days by DiOC6/ propidium staining based flow cytometry analysis; type: functional; conditions: dose 20-40 µM, time 5-15 day
MOLM-13 [25] = assay: Downregulation of MEIS1 gene in human MOLM-13 cells at 10 uM measured after 3 to 10 days by qPCR analysis; type: functional, cell-based; conditions: time 3-10 day
MOLM-13 [26] = assay: Cytotoxicity against human MOLM-13 cells assessed as reduction of cell viability up to 10 uM incubated for 72 hrs by celltiter-glo assay; type: functional, cell-based; conditions: MOLM-13, 72 h
[27] = Acute toxicity in BALB/c mouse at 20 mg/kg,iv; type: organism-based; conditions: in vivo
[28] = target: T1, Histone-lysine N-methyltransferase, H3 lysine-79 specific; assay: Binding affinity to human DOT1L assessed as binding free energy difference
[29] = Elimination rate constant in fasted BALB/c mouse at 5 mg/kg, iv administered upto 600 mins by HPLC-MS/MS analysis; type: ADME, organism-based; conditions: BALB/c, in vivo
[30] = Volume of distribution in fasted BALB/c mouse at 20 mg/kg, iv administered upto 600 mins by HPLC-MS/MS analysis; type: ADME, organism-based; conditions: in vivo
[31] = Volume of distribution in fasted BALB/c mouse at 5 mg/kg, iv administered upto 600 mins by HPLC-MS/MS analysis; type: ADME, organism-based; conditions: in vivo
[32] = Half life in fasted BALB/c mouse at 20 mg/kg, iv administered upto 600 mins by HPLC-MS/MS analysis; type: ADME, organism-based; conditions: in vivo

CC(C)N(C[C@H]1C[C@@H](c2ccc3c(N)ncnn23)[C@H](O)[C@@H]1O)[C@H]1C[C@@H](CCc2nc3cc(C(C)(C)C)ccc3[nH]2)C1
Activity [1]: Dde | Cmax [2]: 91.2 µg/mL | AUC(0-t) at 10 h [3]: 34700 ng·h/mL | Activity [4]: Dde | AUC(0-inf) [5]: 5850 ng·h/mL | Activity [6]: Dde | Tmax [7]: 5 min | AUC(0-t) at 10 h [8]: 5800 ng·h/mL | EC50 (MV4-11): 1.7 µM | Activity [9]: Dde | EC50 (SK-N-MC): 8.8 µM | Activity (OCI-AML-3): Active | Activity (MOLM-13 [10]): Active | Activity [11]: Dde | IC50 [12]: 0.0021 µM | Cmax [13]: 20.6 µg/mL | Tmax [14]: 5 min | AUC(0-inf) [15]: 35000 ng·h/mL | Activity (MOLM-13 [16]): Active | Activity [17]: Dde | half-life [18]: 57.2 min | remaining at 40 min [19]: 41% | Activity (MOLM-13 [20]): Active | clearance [21]: 9.54 mL/min/kg | microsomal CLint [22]: 56 µL/min/mg | clearance [23]: 14.2 mL/min/kg | EC50 (SU-DHL-5): 9 µM | k el at 10 h [24]: 0.000123 s⁻¹ | Activity (SUD4): Active | Activity (MOLM-13 [25]): Active | EC50 (MOLM-13 [26]): 7.7 µM | Activity [27]: Non-Toxic | deltaG [28]: -0.717 kcal/mol | k el at 10 h [29]: 0.000202 s⁻¹ | Vd [30]: 1.29 L/kg | Vd [31]: 1.18 L/kg | half-life [32]: 93.6 min
